In general, EC50 refers to the concentration giving half of the maximal effect. Broadly, the IC50 is the concentration needed to halve the response being measured.

From patent US6683077B2, “2-Amino-benzoxazinones for the treatment of viral infections” (G.D. Searle & Co., priority 1996, dated 2004) come the findings set out here.

Test [1] concerns the target T1, Human leukocyte elastase (HLE) (Homo sapiens, UniProt P08246).
T1 construct: gift of R. Senior, Washington University
T1 sequence (P08246 30-267): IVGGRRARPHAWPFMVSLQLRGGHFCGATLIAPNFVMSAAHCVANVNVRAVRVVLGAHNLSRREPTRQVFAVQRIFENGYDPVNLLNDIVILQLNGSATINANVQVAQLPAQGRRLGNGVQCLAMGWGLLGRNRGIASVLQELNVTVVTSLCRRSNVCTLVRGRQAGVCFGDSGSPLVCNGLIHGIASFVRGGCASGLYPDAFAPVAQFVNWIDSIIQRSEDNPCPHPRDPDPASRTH
The test can be described thus: Human leukocyte elastase assay. The format is biochemical. On the procedure:
Human leukocyte elastase (HLE) (gift of R. Senior, Washington University) was dissolved in saline at 1 mg/ml and further diluted 1/20 in assay buffer (0.2 M Tris, pH 8.0) before use. 10 μl of test compound in DMSO (or DMSO alone), 100 μl of assay buffer and 50 μl of enzyme were added to 96 well plates, mixed and pre-incubated for 30 minutes at ambient temperature. Reaction was initiated by addition of 40 μl of 2.5 mM methoxysuccinyl-Ala-Ala-Pro-Val-p-nitroanilide (Sigma; 25 mM in DMSO diluted 1/10 in assay buffer before use). The increase in absorbance at 405 nm was monitored for 10 minutes with a Biotek EL340 plate reader.

Test [2] relates to HCMV engineered virus RC256. The test can be described thus: microbe, parasite or virus in culture. The conditions noted are these: Human betaherpesvirus 5, Fibroblast, read-out: Antiviral Activity RC256, first value (EC50). It counts as cell-based, human cytomegalovirus.
The target of test [3] is HCMV protease (assemblin) (Human cytomegalovirus, UniProt P16753). The test can be described thus: Enzymatic assay for HCMV protease (assemblin) inhibitors. It counts as biochemical.
Sequence of HCMV protease (assemblin) (P16753 1-256): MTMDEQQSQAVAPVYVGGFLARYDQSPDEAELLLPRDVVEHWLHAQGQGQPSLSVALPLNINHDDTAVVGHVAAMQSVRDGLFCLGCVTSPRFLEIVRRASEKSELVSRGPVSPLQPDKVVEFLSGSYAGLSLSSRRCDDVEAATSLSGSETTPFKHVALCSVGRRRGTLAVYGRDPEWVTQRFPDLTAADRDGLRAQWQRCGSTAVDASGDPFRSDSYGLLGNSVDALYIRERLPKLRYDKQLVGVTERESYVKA
[4] abbreviates: @ 10 (concentration unit not given).
Where [5] appears, read: @ 100 (concentration unit not given).
[6] abbreviates: @ 1 (concentration unit not given).

As for `CCN(Cc1ccccc1)C(=O)[C@H](Cc1ccc(OC)cc1)Nc1nc2ccc(CNC(=O)Oc3ccccc3)c(C)c2c(=O)o1` [Example 9q, Phenyl[[2-[[2-[ethyl(phenylmethyl)amino-1S-,(4-methoxyphenyl)methyl]-2-oxoethyl]amino]-5-methyl-4-oxo-3,1-benzoxazin-6-yl]methyl]carbamate], the “HLE, % @ concentration” value in test [1] (@ 5 (concentration unit not given)) came out at 48% @ 5. Moreover, the EC50 in test [2] was 18 µM. Also, the IC50 in test [3] is 1 µM.

Consider `COc1ccc(C[C@H](Nc2nc3ccc(NC(=O)OCc4ccccc4)c(C)c3c(=O)o2)C(=O)N(C)Cc2ccccc2)cc1` [Example 11t, Phenylmethyl[2-[[1S-[(4-methoxyphenyl)methyl]-2-[methyl(phenylmethyl)amino]-2-oxoethyl]amino]-5-methyl-4H-3,1-benzoxazin-6-yl]carbamate], for which, in test [2], the EC50 came to 35 µM. Further, the “Assemblin Protease, % @ concentration” value in test [3] (setting [4]) turned out to be 38% @ 10.

`Cc1c(CNS(=O)(=O)c2ccccc2)ccc2nc(N[C@@H](Cc3ccccc3)C(=O)N(C)Cc3ccccc3)oc(=O)c12` [Example 13e, N-Methyl-αS-[[5-methyl-4-oxo-6-[[(phenylsulfonyl)amino]methyl]-4H-3,1-benzoxazin-2-yl]amino]-N-(phenylmethyl)benzenepropanamide]: the EC50 in test [2] amounted to 14 µM. Moreover, the “Assemblin Protease, % @ concentration” value in test [3] (setting [5]) is 11% @ 100.

Regarding `CCOC(=O)NCc1cc(Br)c2nc(N[C@@H](Cc3ccccc3)C(=O)N(C)Cc3ccccc3)oc(=O)c2c1C` [Example 15b, Ethyl[[8-bromo-5-methyl-2-[[2-[methyl(phenylmethyl)amino]-2-oxo-1S-(phenylmethyl)ethyl]amino]-4-oxo-4H-3,1-benzoxazin-6-yl]methyl]carbamate], in test [2], the EC50 was 16 µM. Moreover, the “Assemblin Protease, % @ concentration” value in test [3] (setting [4]) turned out to be 39% @ 10.

For `Cc1c(CNC(=O)Oc2ccccc2)ccc2nc(N[C@@H](Cc3ccccc3)C(=O)N(C)Cc3ccccc3)oc(=O)c12` [Example 9ee, Phenyl[[5-methyl-2-[[2-[methyl(phenylmethyl)amino]-2-oxo-1S-(phenylmethyl)ethyl]amino]-4-oxo-4H-3,1-benzoxazin-6-yl]methyl]carbamate], in test [1] (setting [4]), the “HLE, % @ concentration” value was determined as 47% @ 10. Further, in test [2], the EC50 came to 15 µM. The compound also returned an IC50 in test [3] of 0.6 µM.

On to `COc1ccc(C[C@H](Nc2nc3ccc(NC(=O)OCC(C)C)c(C)c3c(=O)o2)C(=O)N(C)Cc2ccccc2)cc1` [Example 11s, 2-Methylpropyl[2-[[1S-[(4-methoxyphenyl)methyl]-2-[methyl(phenylmethyl)amino]-2-oxoethyl]amino]-5-methyl-4H-3,1-benzoxazin-6-yl]carbamate], for which the EC50 in test [2] was found to be 17 µM. In addition, the “Assemblin Protease, % @ concentration” value in test [3] (setting [4]) stood at 58% @ 10.

In the case of `COc1ccc(C[C@H](Nc2nc3ccc(CNC(=O)Oc4ccccc4)c(C)c3c(=O)o2)C(=O)N(C)Cc2ccccc2)cc1` [Example 9j, Phenyl[[2-[[1S-[(4-methoxyphenyl)methyl]-2-[methyl(phenylmethyl)amino]-2-oxcethyl]amino]-5-methyl-4-oxo-4H-3,1-benzoxazin-6-yl]methyl]carbamate], in test [2], the EC50 was found to be 20 µM. Also, in test [3], 0.4 µM corresponded to half-maximal inhibition (IC50).

Take `CCN(C(=O)[C@H](Cc1ccc(OC)cc1)Nc1nc2ccc(CNC(=O)OC(C)(C)C)c(C)c2c(=O)o1)c1ccccc1` [Example 7u, 1,1-Dimethylethyl[[2-[[2-(ethylphenylamino)-1S-[(4-methoxyphenyl)methyl]-2-oxoethyl]amino]-5-methyl-4-oxo-4H-3,1-benzoxazin-6-yl]methyl]carbamate]: the “HLE, % @ concentration” value in test [1] (setting [4]) was found to be 75% @ 10. The EC50 in test [2] worked out at 35 µM.

With `Cc1ccc(S(=O)(=O)NCc2cc(Br)c3nc(N[C@@H](Cc4ccccc4)C(=O)N(C)Cc4ccccc4)oc(=O)c3c2C)cc1` [Example 13d, αS-[[8-Bromo-5-methyl-6-[[[(4-methylphenyl)sulfonyl]amino]methyl]-4-oxo-4H-3,1-benzoxazin-2-yl]amino]-N-methyl-N-(phenylmethyl)benzenepropanamide], the “HLE, % @ concentration” value in test [1] (setting [4]) was found to be 87% @ 10. Moreover, the EC50 in test [2] came out at 8 µM.

Take `Cc1c(CNC(=O)c2ccccn2)ccc2nc(N[C@@H](Cc3ccccc3)C(=O)N(C)Cc3ccccc3)oc(=O)c12` [Example 9s, N-[[5-Methyl-2-[[2-[methyl(phenylmethyl)amino]-2-oxo-1S-(phenylmethyl)ethyl]amino]-4-oxo-4H-3,1-benzoxazin-6-yl]methyl]pyridine-2-carboxamide]: the “HLE, % @ concentration” value in test [1] (setting [4]) is 55% @ 10. Also, the EC50 in test [2] was 7.5 µM.

For `Cc1c(CNC(=O)OCc2ccccc2)ccc2nc(N[C@@H](Cc3ccccc3)C(=O)N(C)CCc3ccccc3)oc(=O)c12` [Example 9dd, Phenylmethyl[[5-methyl-2-[[2-[methyl(2-phenylethyl)amino]-2-oxo-1S-(phenylmethyl)ethyl]amino]-4-oxo-3,1-benzoxazin-6-yl]methyl]carbamate], the “HLE, % @ concentration” value in test [1] (setting [4]) stood at 78% @ 10. Further, in test [2], the EC50 was 45 µM.

For the compound `COc1ccc(C[C@H](Nc2nc3ccc(NS(=O)(=O)c4ccccc4)c(C)c3c(=O)o2)C(=O)N(C)Cc2ccccc2)cc1` [Example 13c, 4-Methoxy-N-methyl-αS-[[5-methyl-4-oxo-6-[(phenylsulfonyl)amino]-4H-3,1-benzoxazin-2-yl]amino]-N-(phenylmethyl)benzenepropanamide], the “HLE, % @ concentration” value in test [1] (setting [4]) was found to be 39% @ 10. The EC50 in test [2] was 10 µM.

`COC(=O)[C@H](CCS(C)(=O)=O)Nc1nc2ccc(NC(=O)OC(C)(C)C)c(C)c2c(=O)o1` [Example 6u, N-[6-[[(1,1-Dimethylethoxy)carbonyl]amino]-5-methyl-4-oxo-4H-3,1-benzoxazin-2-yl]-L-methionine sulfone, methyl ester]: the “HLE, % @ concentration” value in test [1] (setting [5]) was 29% @ 100. Moreover, the EC50 in test [2] turned out to be 100 µM.

As to `COc1ccc(C[C@H](Nc2nc3ccc(CNC(=O)OC(C)(C)C)c(C)c3c(=O)o2)C(=O)N(C)c2ccc(Cl)cc2)cc1` [Example 7r, 1,1-Dimethylethyl[[2-[[2-[(4-chlorophenyl)methylamino]-1S-[(4-methoxyphenyl)methyl]-2-oxoethyl]amino]-5-methyl-4-oxo-4H-3,1-benzoxazin-6-yl]methyl]carbamate], the “HLE, % @ concentration” value in test [1] (setting [6]) stood at 44% @ 1. For the same compound, in test [2], the EC50 came to 7 µM. Besides, in test [3] (setting [6]), the “Assemblin Protease, % @ concentration” value was 52% @ 1.

For `CCN(C(=O)[C@H](Cc1ccccc1)Nc1nc2ccc(CNC(=O)OC(C)(C)C)c(C)c2c(=O)o1)c1ccccc1` [Example 7n], the “HLE, % @ concentration” value in test [1] (setting [4]) was found to be 16% @ 10. Moreover, the EC50 in test [2] was found to be 16 µM.

On to `COC(=O)[C@H](Cc1ccc(OC)cc1)Nc1nc2ccc(NC(=O)OC(C)(C)C)c(C)c2c(=O)o1` [Example 6c, N-[6-[[(1,1-Dimethylethoxy)carbonyl]amino]-5-methyl-4-oxo-4H-3,1-benzoxazin-2-yl]-O-methyl-L-tyrosine, methyl ester], for which the “HLE, % @ concentration” value in test [1] (setting [5]) was 29% @ 100. Besides, the EC50 in test [2] was determined as 59 µM.

Consider `COc1ccc(C[C@H](Nc2nc3ccc(NC(=O)c4ccco4)c(C)c3c(=O)o2)C(=O)N(C)Cc2ccccc2)cc1` [Example 11u, N-[2-[[1S-[(4-Methoxyphenyl)methyl]-2-[methyl(phenylmethyl)amino]-2-oxoethyl]amino]-5-methyl-4-oxo-4H-3,1-benzoxazin-6-yl]furan-2-carboxamide], for which the “HLE, % @ concentration” value in test [1] (setting [4]) was 19% @ 10. In addition, the EC50 in test [2] stood at 18 µM.
